Measured values reported in patent US8883746B2, “α-galactosylceramide derivatives, pharmaceutically acceptable salts thereof, preparation method and pharmaceutical composition for the immune adjuvant containing the same as an active ingredient” (SNU R&DB Foundation, priority 2006, dated 2014).
Each block holds one compound with its values, some of them ahead of it.

Experiments:
[1] = test system: DN32.D3 NKT hybridoma cells; experiment: Stimulatory activity for NKT hybridoma cells (IL-2 secretion, ELISA); assay type: cell-based, mouse; settings: for IL-2 production compared to α-GalCer: mouse CD1d-bearing RBL cells loaded 4 hrs, co-incubated with DN32.D3 for 16 hrs, FIG. 1; for Stimulatory effect (IL-2) compared to α-GalCer: low concentration (32 ng/mL)
Protocol: Determination of Stimulatory Activity for NKT Hybridoma Cell (Zhou et al., Science, 306:1786-1789, 2004)
Mouse CD1d-bearing rat basophilic leukemia (RBL) cells were incubated with various concentrations of α-GalCer or the α-GalCer derivatives prepared in Examples for 4 hrs. After removing free glycolipids by washing with PBS (phosphate-buffer saline) three times, RBL cells were incubated with DN32.D3 NKT hybridoma cells for 16 hrs. IL-2 secretion levels in the supernatant were determined through ELISA (Enzyme-Linked Immunosorbent Assay).

[2] = test system: Splenocytes from naïve C57BL/6 mice; experiment: Cytokine levels (IFN-γ, IL-4) produced by mouse splenocytes, ELISA; assay type: cell-based; settings: 72 hrs; for IL-4 secretion compared to α-GalCer: high concentrations (125 ng/ml), FIG. 3(a); for IL-4 production compared with α-GalCer: FIG. 3(b) (2 ng/ml)
Protocol: Evaluation of Cytokine Levels Produced by Mouse Splenocyte
Splenocytes from naïve C57BL/6 mice were incubated with various concentrations of α-GalCer or α-GalCer derivatives for 72 hrs. IFN-γ and IL-4 secretion levels in the supernatant were determined through ELISA.

NKT cells = settings: literature (Goff et al., 2004); cited from earlier work
naïve C57BL/6 mice = experiment: IFN-γ and IL-4 production level in vivo (serum, ELISA); settings: 1 μg/mouse intravenously
Protocol: Examination of IFN-γ and IL-4 Production Level In Vivo
α-GalCer or the α-GalCer derivatives (1 μg/mouse) were intravenously injected into naïve C57BL/6 mice. The serum concentrations of IFN-γ and IL-4 at each time point were determined through ELISA.

Compound: CCCCCCCCCCCCCC[C@@H](O)[C@@H](O)[C@H](CO[C@H]1OC(CO)[C@H](O)[C@H](O)[C@H]1O)n1cc(CCCCCC)nn1 (stereo partly drawn) [Example 1, (2S,3R,4S,5R)-2-((2S,3S,4R)-2-(4-hexyl-1H-1,2,3-triazol-1-yl)-3,4-dihydroxyoctadecyloxy)-6-(hydroxymethyl)-tetrahydro-2H-pyrane-3,4,5-triol]
IL-2 production compared to α-GalCer [1]: ineffective

Compound: CCCCCCCCCCCCCC[C@@H](O)[C@@H](O)[C@H](CO[C@H]1OC(CO)[C@H](O)[C@H](O)[C@H]1O)n1cc(CCCCCCC)nn1 (stereo partly drawn) [Example 2, (2S,3R,4S,5R)-2-((2S,3S,4R)-2-(4-heptyl-1H-1,2,3-triazol-1-yl)-3,4-dihydroxyoctadecyloxy)-6-(hydroxymethyl)-tetrahydro-2H-pyrane-3,4,5-triol]
IL-4 secretion compared to α-GalCer [2]: equivalent or greater IL-4 secretion than did α-GalCer
IL-2 production compared to α-GalCer [1]: ineffective

melting point: 162 to 164 °C
Compound: CCCCCCCCCCCCCCCCc1cn([C@@H](CO[C@H]2OC(CO)[C@H](O)[C@H](O)[C@H]2O)[C@H](O)[C@H](O)CCCCCCCCCCCCCC)nn1 (stereo partly drawn) [Example 3, (2S,3R,4S,5R)-2-((2S,3S,4R)-2-(4-hexadecyl-1H-1,2,3-triazol-1-yl)-3,4-dihydroxyoctadecyloxy)-6-(hydroxymethyl)-tetrahydro-2H-pyrane-3,4,5-triol]
IL-2 production compared to α-GalCer [1]: not active in practice

Compound: CCCCCCCCCCCCCCCCCCCCCCCc1cn([C@@H](CO[C@H]2OC(CO)[C@H](O)[C@H](O)[C@H]2O)[C@H](O)[C@H](O)CCCCCCCCCCCCCC)nn1 (stereo partly drawn) [Example 4, (2S,3R,4S,5R)-2-((2S,3S,4R)-3,4-dihydroxy-2-(4-tricosyl-1H-1,2,3-triazol-1-yl)octadecyloxy)-6-(hydroxymethyl)-tetranydro-2H-pyrane-3,4,5-triol]
IL-4 secretion compared to α-GalCer [2]: equivalent or greater IL-4 secretion than did α-GalCer

melting point: 167 to 169 °C
Compound: CCCCCCCCCCCCCCCCCCCCCCCCc1cn([C@@H](CO[C@H]2OC(CO)[C@H](O)[C@H](O)[C@H]2O)[C@H](O)[C@H](O)CCCCCCCCCCCCCC)nn1 (stereo partly drawn) [Example 5, (2S,3R,4S,5R)-2-((2S,3S,4R)-3,4-dihydroxy-2-(4-tetracosyl-1H-1,2,3-triazol-1-yl)octadecyloxy)-6-(hydroxymethyl)-tetrahydro-2H-pyrane-3,4,5-triol]
IL-4 secretion compared to α-GalCer [2]: equivalent or greater IL-4 secretion than did α-GalCer
Stimulatory effect (IL-2) compared to α-GalCer [1]: comparable stimulatory effects to α-GalCer

melting point: 165 to 167 °C
Compound: CCCCCCCCCCCCCCCCCCCCCCCCCc1cn([C@@H](CO[C@H]2OC(CO)[C@H](O)[C@H](O)[C@H]2O)[C@H](O)[C@H](O)CCCCCCCCCCCCCC)nn1 (stereo partly drawn) [Example 6, (2S,3R,4S,5R)-2-((2S,3S,4R)-3,4-dihydroxy-2-(4-pentacosyl-1H-1,2,3-triazol-1-yl)octadecyloxy)-6-(hydroxymethyl)-tetrahydro-2H-pyrane-3,4,5-triol]

Compound: CCCCCCCCCCCCCC[C@@H](O)[C@@H](O)[C@H](CO[C@H]1OC(CO)[C@H](O)[C@H](O)[C@H]1O)n1cc(CCCCCCc2ccccc2)nn1 (stereo partly drawn) [Example 7, (2S,3R,4S,5R)-2-((2S,3S,4R)-3,4-dihydroxy-2-(4-(6-phenylhexyl)-1H-1,2,3-triazol-1-yl)octadecyloxy)-6-(hydroxymethyl)-tetrahydro-2H-pyrane-3,4,5-triol]
IL-2 production compared to α-GalCer [1]: ineffective

Compound: CCCCCCCCCCCCCC[C@@H](O)[C@@H](O)[C@H](CO[C@H]1OC(CO)[C@H](O)[C@H](O)[C@H]1O)n1cc(CCCCCCCc2ccccc2)nn1 (stereo partly drawn) [Example 8, (2S,3R,4S,5R)-2-((2S,3S,4R)-3,4-dihydroxy-2-(4-(7-phenylheptyl)-1H-1,2,3-triazol-1-yl)octadecyloxy)-6-(hydroxymethyl)-tetrahydro-2H-pyrane-3,4,5-triol]
IL-2 production compared to α-GalCer [1]: ineffective

Compound: CCCCCCCCCCCCCC[C@@H](O)[C@@H](O)[C@H](CO[C@H]1OC(CO)[C@H](O)[C@H](O)[C@H]1O)n1cc(CCCCCCCCc2ccccc2)nn1 (stereo partly drawn) [Example 9, (2S,3R,4S,5R)-2-((2S,3S,4R)-3,4-dihydroxy-2-(4-(8-phenyloctyl)-1H-1,2,3-triazol-1-yl)octadecyloxy)-6-(hydroxymethyl)-tetrahydro-2H-pyrane-3,4,5-triol]
IL-2 production compared to α-GalCer [1]: ineffective

Compound: CCCCCCCCCCCCCC[C@@H](O)[C@@H](O)[C@H](CO[C@H]1OC(CO)[C@H](O)[C@H](O)[C@H]1O)NC(=O)CCCCCCCCCCCN (stereo partly drawn) [Example 11, 12-amino-N-((2S,3S,4R)-3,4-dihydroxy-1-((2S,3R,4S,5R)-3,4,5-trihydroxy-6-(hydroxymethyl)-tetrahydro-2H-pyran-2-yloxy)octadecan-2-yl)dodecanamide]
IL-4 production compared with α-GalCer [2]: more IL-4 production compared with α-GalCer
Stimulatory effect (IL-2) compared to α-GalCer [1]: comparable stimulatory effects to α-GalCer

Compound: CCCCCCCCCCCCCC[C@@H](O)[C@@H](O)[C@H](CO[C@H]1OC(CO)[C@H](O)[C@H](O)[C@H]1O)NC(=O)CCCCCCCCCCO (stereo partly drawn) [Example 12, N-((2S,3S,4R)-3,4-dihydroxy-1-((2S,3R,4S,5R)-3,4,5-trihydroxy-6-(hydroxymethyl)-tetrahydro-2H-pyran-2-yloxy)octadecan-2-yl)-11-hydroxyundecanamide]
Stimulatory effect (IL-2) compared to α-GalCer [1]: comparable stimulatory effects to α-GalCer

Compound: CCCCCCCCCCCCCC[C@@H](O)[C@@H](O)[C@H](CO[C@H]1OC(CO)[C@H](O)[C@H](O)[C@H]1O)NC(=O)CCCCCCCCCCCO (stereo partly drawn) [Example 13, N-((2S,3S,4R)-3,4-dihydroxy-1-((2S,3R,4S,5R)-3,4,5-trihydroxy-6-(hydroxymethyl)-tetrahydro-2H-pyran-2-yloxy)octadecan-2-yl)-12-hydroxydodecanamide]
IL-4 production compared with α-GalCer [2]: more IL-4 production compared with α-GalCer

Compound: CCCCCCCCCCCCCC[C@@H](O)[C@@H](O)[C@H](CO[C@H]1OC(CO)[C@H](O)[C@H](O)[C@H]1O)NC(=O)CCCCCCCCCCN(CCCCCCC)CCCCCCC (stereo partly drawn) [Example 16, 11-(diheptylamino)-N-((2S,3S,4R)-3,4-dihydroxy-1-((2S,3R,4S,5R)-3,4,5-trihydroxy-6-(hydroxymethyl)-tetrahydro-2H-pyran-2-yloxy)octadecan-2-yl)undecanamide]
IL-4 production compared with α-GalCer [2]: more IL-4 production compared with α-GalCer
Stimulatory effect (IL-2) compared to α-GalCer [1]: comparable stimulatory effects to α-GalCer

Compound: CCCCCCCCCCCCCC[C@@H](O)[C@@H](O)[C@H](CO[C@H]1O[C@H](CO)[C@H](O)[C@H](O)[C@H]1O)NC(=O)CCCCCCC [PBS-25]
Secretion of Th2-cytokines compared to α-GalCer (NKT cells): greater amount of Th2-cytokines, compared to α-GalCer

Compound: CCCCCCCCCCCCCCCCCCCCCCCCCC(=O)N[C@@H](CO[C@H]1O[C@H](CO)[C@H](O)[C@H](O)[C@H]1O)[C@H](O)[C@H](O)CCCCCCCCCCCCCC [α-GalCer, α-Galactosylceramide]
Time of peak of serum IFN-γ levels after administration (naïve C57BL/6 mice): 12 h
Time of rapid increase of serum IL-4 levels after administration (naïve C57BL/6 mice): ≤ 2 h
